Test results taken from ChEMBL document CHEMBL3400120, “Design, synthesis and biological evaluation of tasiamide B derivatives as BACE1 inhibitors” (Bioorg Med Chem, 2015).
The source made the active and inactive calls. The calls are words filed in the database; no cut-off is given here. Numbered stars: 1 amine (or outer) side, 2 acyl side, 3 side chain; on linkers, the order of the positions; unused ones are H or OH. Square brackets hold non-standard residues; d marks the D form. Peptide text beside a SMILES is read from it. * marks the point of attachment. Ahppa(3S,4S) = O=C(C[C@H](O)[C@H](Cc1ccccc1)N[*:1])[*:2]; dNMeF = CN[C@H](Cc1ccccc1)C(=O)O; NMeQ = CN[C@@H](CCC(N)=O)C(=O)O; Cbz = O=C(OCc1ccccc1)*; Lac = C[C@H](O)C(=O)O

How the values were obtained:
Beta-secretase 1 [1] = molecular target: T1, Beta-secretase 1 (Homo sapiens, UniProt P56817); assay: Inhibition of BACE1 (unknown origin) at 10 uM after 90 mins by fluorescence assay
Beta-secretase 1 [2] = molecular target: T1, Beta-secretase 1; assay: Inhibition of BACE1 (unknown origin) after 90 mins by fluorescence assay

T1 sequence (P56817 whole entry): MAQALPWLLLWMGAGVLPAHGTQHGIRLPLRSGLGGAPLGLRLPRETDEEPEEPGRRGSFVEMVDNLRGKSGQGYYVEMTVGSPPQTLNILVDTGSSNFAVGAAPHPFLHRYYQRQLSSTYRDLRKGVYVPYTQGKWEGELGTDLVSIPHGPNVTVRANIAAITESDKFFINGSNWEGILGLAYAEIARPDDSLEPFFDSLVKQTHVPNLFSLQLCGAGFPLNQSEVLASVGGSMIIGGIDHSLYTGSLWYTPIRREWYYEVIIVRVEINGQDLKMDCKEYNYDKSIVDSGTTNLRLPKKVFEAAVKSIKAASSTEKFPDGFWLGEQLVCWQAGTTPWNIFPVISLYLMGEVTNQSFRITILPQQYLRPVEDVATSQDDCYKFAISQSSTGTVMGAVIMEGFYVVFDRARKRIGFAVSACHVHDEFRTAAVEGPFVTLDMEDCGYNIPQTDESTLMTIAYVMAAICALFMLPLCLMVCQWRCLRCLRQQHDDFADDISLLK

SMILES	inhibition (Beta-secretase 1 [1])	IC50 (Beta-secretase 1 [2]; read-out: IC50) [µM]	IC50 (Beta-secretase 1 [2])
COC(=O)[C@H](C)NC(=O)[C@H](CC(C)C)NC(=O)C[C@H](O)[C@H](Cc1ccccc1)NC(=O)OC(C)(C)C	11.6%	> 10	–
COC(=O)[C@H](C)NC(=O)[C@H](CC(C)C)NC(=O)C[C@H](O)[C@H](Cc1ccccc1)NC(=O)[C@H](CCC(N)=O)N(C)C(=O)[C@@H](NC(=O)OCc1ccccc1)C(C)C (Cbz-V[NMeQ][Ahppa(3S,4S)]LA-OMe)	90.6%	2.61	–
COC(=O)[C@H](CC(C)C)NC(=O)C[C@H](O)[C@H](Cc1ccccc1)NC(=O)[C@H](CCC(N)=O)N(C)C(=O)OCc1ccccc1	24.2%	> 10	–
CC(C)C[C@H](NC(=O)C[C@H](O)[C@H](Cc1ccccc1)NC(=O)[C@@H](N)Cc1cc2ccccc2[nH]1)C(=O)N[C@@H](C)C(=O)N(C)[C@H](Cc1ccccc1)C(=O)OCc1ccccc1	33.9%	> 10	–
COC(=O)C[C@H](O)[C@H](Cc1ccccc1)NC(=O)[C@H](CCC(N)=O)N(C)C(=O)[C@@H](NC(=O)OCc1ccccc1)C(C)C	22.1%	> 10	–
COC(=O)[C@H](CC(C)C)NC(=O)C[C@H](O)[C@H](Cc1ccccc1)NC(=O)OC(C)(C)C	25.8%	> 10	–
COC(=O)[C@H](CC(C)C)NC(=O)C[C@H](O)[C@H](Cc1ccccc1)NC(=O)[C@H](CCC(N)=O)N(C)C(=O)[C@@H](NC(=O)OCc1ccccc1)C(C)C	75%	4.46	–
COC(=O)[C@@H](Cc1ccccc1)N(C)C(=O)[C@H](C)NC(=O)[C@H](CC(C)C)NC(=O)C[C@H](O)[C@H](Cc1ccccc1)NC(=O)[C@H](CCC(N)=O)N(C)C(=O)[C@@H](NC(=O)OCc1ccccc1)C(C)C	97%	0.87	–
COC(=O)C[C@H](O)[C@H](Cc1ccccc1)NC(=O)[C@H](CCC(N)=O)N(C)C(=O)OCc1ccccc1	inactive	–	Not Active
COC(=O)[C@H](C)NC(=O)[C@H](CC(C)C)NC(=O)C[C@H](O)[C@H](Cc1ccccc1)NC(=O)[C@H](CCC(N)=O)N(C)C(=O)OCc1ccccc1	17.5%	> 10	–

Further lines, with some results ahead:

inhibition (Beta-secretase 1 [1])	IC50 (Beta-secretase 1 [2]; read-out: IC50) [µM]	SMILES	IC50 (Beta-secretase 1 [2])
35%	> 10	CCCN(CCC)C(=O)c1cccc(C(=O)N[C@@H](Cc2ccccc2)[C@@H](O)CC(=O)N[C@@H](CC(C)C)C(=O)N[C@@H](C)C(=O)N(C)[C@H](Cc2ccccc2)C(=O)O)n1	–
97.2%	0.48	CCCN(CCC)C(=O)c1cccc(C(=O)N[C@@H](Cc2ccccc2)[C@@H](O)CC(=O)N[C@@H](CC(C)C)C(=O)N[C@@H](C)C(=O)N(C)[C@H](Cc2ccccc2)C(=O)O)c1	–
89.4%	1.01	CCCN(CCC)C(=O)c1cccc(C(=O)N[C@@H](Cc2ccccc2)[C@@H](O)CC(=O)N[C@@H](CC(C)C)C(=O)N[C@@H](C)C(=O)N(C)[C@H](Cc2ccccc2)C(=O)OCc2ccccc2)c1	–
28.7%	> 10	CCCN(CCC)C(=O)c1cccc(C(=O)N[C@@H](Cc2ccccc2)[C@@H](O)CC(=O)N[C@@H](CC(C)C)C(=O)N[C@@H](C)C(=O)N(C)[C@H](Cc2ccccc2)C(=O)OCc2ccccc2)n1	–
4.44%	> 10	CC(C)C[C@H](NC(=O)C[C@H](O)[C@H](Cc1ccccc1)NC(=O)OC(C)(C)C)C(=O)N[C@@H](C)C(=O)N(C)[C@H](Cc1ccccc1)C(=O)OCc1ccccc1	–
28.4%	> 10	CC(C)C[C@H](NC(=O)C[C@H](O)[C@H](Cc1ccccc1)NC(=O)c1cccc(C(=O)N2CCCC2=O)c1)C(=O)N[C@@H](C)C(=O)N(C)[C@H](Cc1ccccc1)C(=O)OCc1ccccc1	–
41.7%	> 10	CC(C)C[C@H](NC(=O)C[C@H](O)[C@H](Cc1ccccc1)NC(=O)OC(C)(C)C)C(=O)N[C@@H](C)C(=O)N(C)[C@H](Cc1ccccc1)C(=O)O	–
35.1%	> 10	CC(C)C[C@H](NC(=O)C[C@H](O)[C@H](Cc1ccccc1)NC(=O)c1cccc(C(=O)N2CCCC2=O)c1)C(=O)N[C@@H](C)C(=O)N(C)[C@H](Cc1ccccc1)C(=O)O	–
–	0.078	CC(C)C[C@H](NC(=O)C[C@H](O)[C@H](Cc1ccccc1)NC(=O)[C@H](CCC(N)=O)N(C)C(=O)[C@@H](NC(=O)[C@H](C)O)C(C)C)C(=O)N[C@@H](C)C(=O)N(C)[C@H](Cc1ccccc1)C(=O)O (H-[Lac]V[NMeQ][Ahppa(3S,4S)]LA[dNMeF]-OH)	–
49.5%	> 10	COC(=O)[C@@H](Cc1ccccc1)N(C)C(=O)[C@H](C)NC(=O)[C@H](CC(C)C)NC(=O)C[C@H](O)[C@H](Cc1ccccc1)NC(=O)[C@H](CCC(N)=O)N(C)C(=O)OCc1ccccc1	–
